Laboratory results: US11053204B2, “Pyrimidinyloxy benzene derivatives as herbicides” (FMC Corporation, priority 2015, dated 2021)

Tests used:
Type in all cases: in vivo
[1] = system: barnyardgrass (Echinochloa crus-galli); test: Test A postemergence, visual injury rating; details: 0 is no effect, 100 is complete control; for Barnyardgrass plant response rating: 0 to 100 scale, approximately 10 days
How it was run: (§1)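 Injury scores run from 0, no effect, to 100, complete control, judged by eye against untreated plants roughly 10 days after treatment. Chemicals carried a surfactant in a non-phytotoxic solvent and went onto loam–sand soil preemergence or onto one- to two-leaf seedlings postemergence.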

[2] = system: blackgrass (Alopecurus myosuroides); test: Test A postemergence, visual injury rating
How it was run: as §1

[3] = system: galium (catchweed bedstraw, Galium aparine); test: Test A postemergence, visual injury rating
How it was run: as §1

[4] = system: blackgrass (Alopecurus myosuroides); test: Test C preemergence, plant response rating; details: Preemergence
How it was run: (§2)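 Visual injury score, 0 = no effect, 100 = complete control, assigned against untreated controls after 13 to 15 d in the greenhouse. Compounds were applied in a surfactant-containing non-phytotoxic solvent mix, preemergence to seeded loam/sand or silt loam soil, or postemergence to 1- to 4-leaf plants (2 to 18 cm).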

corn (Zea mays) = test: Test C preemergence, plant response rating; details: Preemergence
How it was run: as §2

[5] = system: crabgrass, large (large crabgrass, Digitaria sanguinalis); test: Test C preemergence, plant response rating; details: Preemergence
How it was run: as §2

[6] = system: foxtail, giant (giant foxtail, Setaria faberii); test: Test C preemergence, plant response rating; details: Preemergence
How it was run: as §2

[7] = system: lambsquarters (Chenopodium album); test: Test C preemergence, plant response rating; details: Preemergence
How it was run: as §2

[8] = system: morningglory (Ipomoea coccinea); test: Test C preemergence, plant response rating; details: Preemergence
How it was run: as §2

[9] = system: nutsedge, yellow (yellow nutsedge, Cyperus esculentus); test: Test C preemergence, plant response rating; details: Preemergence
How it was run: as §2

[10] = system: oilseed rape (Brassica napus); test: Test C preemergence, plant response rating; details: Preemergence
How it was run: as §2

[11] = system: ragweed (common ragweed, Ambrosia elatior); test: Test C preemergence, plant response rating; details: Preemergence
How it was run: as §2

[12] = system: ryegrass, Italian (Italian ryegrass, Lolium multiflorum); test: Test C preemergence, plant response rating; details: Preemergence
How it was run: as §2

soybean (Glycine max) = test: Test C preemergence, plant response rating; details: Preemergence
How it was run: as §2

[13] = system: velvetleaf (Abutilon theophrasti); test: Test C preemergence, plant response rating; details: Preemergence
How it was run: as §2

[14] = system: waterhemp (common waterhemp, Amaranthus rudis); test: Test C preemergence, plant response rating; details: Preemergence
How it was run: as §2

[15] = system: wheat (winter wheat, Triticum aestivum); test: Test C preemergence, plant response rating; details: Preemergence
How it was run: as §2

[16] = 31 g ai/ha, 0 to 100 scale (0 no effect, 100 complete control)
[17] = 125 g ai/ha, 0 to 100 scale, 0 is no effect, 100 is complete control, approximately 10 days
[18] = 500 g ai/ha, 0 is no effect, 100 is complete control

O=C(CCCC(F)(F)F)c1c(Cl)cccc1Oc1ncc(Cl)cn1 [Compound 143]
90: Galium plant response rating [3, 16]
25: Plant response rating, Morningglory ([8]; 125 g ai/ha, scale of 0 to 100)
70: Barnyardgrass plant response rating ([1]; 125 g ai/ha) | Plant response rating, Crabgrass, Large ([5]; 16 g ai/ha, scale 0 to 100) | Plant response rating, Velvetleaf ([13]; 125 g ai/ha, scale of 0 to 100)
10: Plant response rating, Lambsquarters ([7]; 31 g ai/ha, scale 0 to 100) | Plant response rating, Velvetleaf ([13]; 31 g ai/ha, scale 0 to 100)
95: Plant response rating, Lambsquarters ([7]; 125 g ai/ha, scale of 0 to 100) | Plant response rating, Lambsquarters ([7]; 62 g ai/ha, scale 0 to 100)
75: Plant response rating, Blackgrass ([4]; 125 g ai/ha, scale of 0 to 100) | Plant response rating, Blackgrass ([4]; 31 g ai/ha, scale 0 to 100)
98: Plant response rating, Foxtail, Giant ([6]; 31 g ai/ha, scale 0 to 100) | Plant response rating, Oilseed Rape ([10]; 125 g ai/ha, scale of 0 to 100) | Plant response rating, Waterhemp ([14]; 31 g ai/ha, scale 0 to 100)
45: Plant response rating, Ryegrass, Italian ([12]; 125 g ai/ha, scale of 0 to 100)
5: Plant response rating, Blackgrass ([4]; 16 g ai/ha, scale 0 to 100) | Plant response rating, Corn (corn (Zea mays); 16 g ai/ha, scale 0 to 100) | Plant response rating, Morningglory ([8]; 62 g ai/ha, scale 0 to 100) | Plant response rating, Nutsedge, Yellow ([9]; 125 g ai/ha, scale of 0 to 100) | Plant response rating, Oilseed Rape ([10]; 31 g ai/ha, scale 0 to 100) | Plant response rating, Ragweed ([11]; 125 g ai/ha, scale of 0 to 100)
100: Galium plant response rating [3, 17] | Plant response rating, Crabgrass, Large ([5]; 125 g ai/ha, scale of 0 to 100) | Plant response rating, Crabgrass, Large ([5]; 31 g ai/ha, scale 0 to 100) | Plant response rating, Crabgrass, Large ([5]; 62 g ai/ha, scale 0 to 100) | Plant response rating, Foxtail, Giant ([6]; 125 g ai/ha, scale of 0 to 100) | Plant response rating, Foxtail, Giant ([6]; 62 g ai/ha, scale 0 to 100) | Plant response rating, Waterhemp ([14]; 125 g ai/ha, scale of 0 to 100) | Plant response rating, Waterhemp ([14]; 62 g ai/ha, scale 0 to 100)
30: Blackgrass plant response rating [2, 16] | Plant response rating, Ryegrass, Italian ([12]; 62 g ai/ha, scale 0 to 100)
80: Blackgrass plant response rating [2, 17] | Plant response rating, Blackgrass ([4]; 62 g ai/ha, scale 0 to 100) | Plant response rating, Oilseed Rape ([10]; 62 g ai/ha, scale 0 to 100)
20: Barnyardgrass plant response rating ([1]; 31 g ai/ha) | Plant response rating, Corn (corn (Zea mays); 125 g ai/ha, scale of 0 to 100) | Plant response rating, Ryegrass, Italian ([12]; 31 g ai/ha, scale 0 to 100) | Plant response rating, Soybean (soybean (Glycine max); 125 g ai/ha, scale of 0 to 100)
0: Plant response rating, Corn (corn (Zea mays); 31 g ai/ha, scale 0 to 100) | Plant response rating, Corn (corn (Zea mays); 62 g ai/ha, scale 0 to 100) | Plant response rating, Morningglory ([8]; 31 g ai/ha, scale 0 to 100) | Plant response rating, Nutsedge, Yellow ([9]; 31 g ai/ha, scale 0 to 100) | Plant response rating, Nutsedge, Yellow ([9]; 62 g ai/ha, scale 0 to 100) | Plant response rating, Ragweed ([11]; 31 g ai/ha, scale 0 to 100) | Plant response rating, Ragweed ([11]; 62 g ai/ha, scale 0 to 100) | Plant response rating, Soybean (soybean (Glycine max); 31 g ai/ha, scale 0 to 100) | Plant response rating, Wheat ([15]; 125 g ai/ha, scale of 0 to 100) | Plant response rating, Wheat ([15]; 31 g ai/ha, scale 0 to 100) | Plant response rating, Wheat ([15]; 62 g ai/ha, scale 0 to 100)
15: Plant response rating, Soybean (soybean (Glycine max); 62 g ai/ha, scale 0 to 100)
40: Plant response rating, Velvetleaf ([13]; 62 g ai/ha, scale 0 to 100)

CCCC(=O)c1c(Oc2ncc(Cl)cn2)cccc1C(F)(F)F [Compound 136]
10: Plant response rating, Wheat ([15]; 125 g ai/ha, scale of 0 to 100)
50: Blackgrass plant response rating [2, 17] | Plant response rating, Crabgrass, Large ([5]; 16 g ai/ha, scale 0 to 100)
5: Plant response rating, Corn (corn (Zea mays); 125 g ai/ha, scale of 0 to 100) | Plant response rating, Corn (corn (Zea mays); 62 g ai/ha, scale 0 to 100) | Plant response rating, Morningglory ([8]; 62 g ai/ha, scale 0 to 100) | Plant response rating, Nutsedge, Yellow ([9]; 125 g ai/ha, scale of 0 to 100) | Plant response rating, Oilseed Rape ([10]; 31 g ai/ha, scale 0 to 100) | Plant response rating, Velvetleaf ([13]; 31 g ai/ha, scale 0 to 100)
20: Plant response rating, Ragweed ([11]; 31 g ai/ha, scale 0 to 100)
0: Plant response rating, Blackgrass ([4]; 16 g ai/ha, scale 0 to 100) | Plant response rating, Corn (corn (Zea mays); 16 g ai/ha, scale 0 to 100) | Plant response rating, Corn (corn (Zea mays); 31 g ai/ha, scale 0 to 100) | Plant response rating, Morningglory ([8]; 31 g ai/ha, scale 0 to 100) | Plant response rating, Nutsedge, Yellow ([9]; 31 g ai/ha, scale 0 to 100) | Plant response rating, Nutsedge, Yellow ([9]; 62 g ai/ha, scale 0 to 100) | Plant response rating, Ragweed ([11]; 62 g ai/ha, scale 0 to 100) | Plant response rating, Soybean (soybean (Glycine max); 31 g ai/ha, scale 0 to 100) | Plant response rating, Wheat ([15]; 31 g ai/ha, scale 0 to 100) | Plant response rating, Wheat ([15]; 62 g ai/ha, scale 0 to 100)
40: Galium plant response rating [3, 17] | Plant response rating, Ragweed ([11]; 125 g ai/ha, scale of 0 to 100) | Plant response rating, Soybean (soybean (Glycine max); 125 g ai/ha, scale of 0 to 100)
80: Barnyardgrass plant response rating (0 to 100 scale) ([1]; 500 g ai/ha) | Plant response rating, Lambsquarters ([7]; 125 g ai/ha, scale of 0 to 100)
25: Plant response rating, Lambsquarters ([7]; 62 g ai/ha, scale 0 to 100)
65: Plant response rating, Foxtail, Giant ([6]; 31 g ai/ha, scale 0 to 100) | Plant response rating, Ryegrass, Italian ([12]; 125 g ai/ha, scale of 0 to 100) | Plant response rating, Velvetleaf ([13]; 125 g ai/ha, scale of 0 to 100)
60: Plant response rating, Blackgrass ([4]; 62 g ai/ha, scale 0 to 100)
35: Plant response rating, Blackgrass ([4]; 31 g ai/ha, scale 0 to 100) | Plant response rating, Ryegrass, Italian ([12]; 62 g ai/ha, scale 0 to 100)
30: Barnyardgrass plant response rating ([1]; 125 g ai/ha) | Plant response rating, Lambsquarters ([7]; 31 g ai/ha, scale 0 to 100) | Plant response rating, Morningglory ([8]; 125 g ai/ha, scale of 0 to 100) | Plant response rating, Ryegrass, Italian ([12]; 31 g ai/ha, scale 0 to 100)
15: Plant response rating, Soybean (soybean (Glycine max); 62 g ai/ha, scale 0 to 100) | Plant response rating, Velvetleaf ([13]; 62 g ai/ha, scale 0 to 100)
70: Plant response rating, Foxtail, Giant ([6]; 62 g ai/ha, scale 0 to 100) | Plant response rating, Oilseed Rape ([10]; 62 g ai/ha, scale 0 to 100)
85: Plant response rating, Crabgrass, Large ([5]; 31 g ai/ha, scale 0 to 100)
98: Plant response rating, Oilseed Rape ([10]; 125 g ai/ha, scale of 0 to 100)
100: Blackgrass plant response rating (0 to 100 scale) [2, 18] | Galium plant response rating (0 to 100 scale) [3, 18] | Plant response rating, Crabgrass, Large ([5]; 125 g ai/ha, scale of 0 to 100) | Plant response rating, Crabgrass, Large ([5]; 62 g ai/ha, scale 0 to 100) | Plant response rating, Foxtail, Giant ([6]; 125 g ai/ha, scale of 0 to 100) | Plant response rating, Waterhemp ([14]; 125 g ai/ha, scale of 0 to 100) | Plant response rating, Waterhemp ([14]; 31 g ai/ha, scale 0 to 100) | Plant response rating, Waterhemp ([14]; 62 g ai/ha, scale 0 to 100)
95: Plant response rating, Blackgrass ([4]; 125 g ai/ha, scale of 0 to 100)
